One assay concerns the target T1, HDAC11 (Homo sapiens, UniProt Q96DB2).
T1 construct: purchased Reaction Biology corporation (contract assay)
T1 sequence (Q96DB2 1-347): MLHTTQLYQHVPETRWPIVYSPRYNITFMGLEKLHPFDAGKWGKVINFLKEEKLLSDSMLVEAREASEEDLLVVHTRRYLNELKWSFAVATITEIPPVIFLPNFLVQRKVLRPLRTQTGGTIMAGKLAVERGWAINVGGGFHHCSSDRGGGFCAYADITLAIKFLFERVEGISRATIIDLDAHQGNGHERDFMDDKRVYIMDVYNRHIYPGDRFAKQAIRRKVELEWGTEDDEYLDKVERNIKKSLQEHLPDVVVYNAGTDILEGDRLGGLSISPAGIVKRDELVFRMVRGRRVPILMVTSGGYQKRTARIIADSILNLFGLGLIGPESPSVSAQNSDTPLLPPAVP
To be noted: previously reported 4-amino analogues; cited from earlier work.

The target of assay [1] is T2, HDAC1 (Homo sapiens, UniProt Q13547).
T2 construct: purchased Reaction Biology corporation (contract assay)
T2 sequence (Q13547 whole entry): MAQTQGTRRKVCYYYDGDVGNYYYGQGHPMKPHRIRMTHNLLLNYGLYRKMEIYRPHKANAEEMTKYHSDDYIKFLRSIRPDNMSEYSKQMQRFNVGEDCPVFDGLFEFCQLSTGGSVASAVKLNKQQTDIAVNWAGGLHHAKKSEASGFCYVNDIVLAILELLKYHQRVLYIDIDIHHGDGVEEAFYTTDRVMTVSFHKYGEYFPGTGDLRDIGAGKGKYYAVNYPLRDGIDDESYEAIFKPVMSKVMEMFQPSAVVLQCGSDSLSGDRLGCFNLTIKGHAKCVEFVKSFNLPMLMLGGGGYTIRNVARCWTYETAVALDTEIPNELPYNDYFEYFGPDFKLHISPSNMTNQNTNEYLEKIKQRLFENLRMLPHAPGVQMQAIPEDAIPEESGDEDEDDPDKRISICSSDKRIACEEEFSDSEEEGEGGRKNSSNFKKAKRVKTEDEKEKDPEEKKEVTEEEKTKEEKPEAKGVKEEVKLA
Conditions: previously reported 4-amino analogues; cited from earlier work.

A further assay deals with T3, HDAC8 (Homo sapiens, UniProt Q9BY41).
T3 construct: purchased Reaction Biology corporation (contract assay)
T3 sequence (Q9BY41 1-377): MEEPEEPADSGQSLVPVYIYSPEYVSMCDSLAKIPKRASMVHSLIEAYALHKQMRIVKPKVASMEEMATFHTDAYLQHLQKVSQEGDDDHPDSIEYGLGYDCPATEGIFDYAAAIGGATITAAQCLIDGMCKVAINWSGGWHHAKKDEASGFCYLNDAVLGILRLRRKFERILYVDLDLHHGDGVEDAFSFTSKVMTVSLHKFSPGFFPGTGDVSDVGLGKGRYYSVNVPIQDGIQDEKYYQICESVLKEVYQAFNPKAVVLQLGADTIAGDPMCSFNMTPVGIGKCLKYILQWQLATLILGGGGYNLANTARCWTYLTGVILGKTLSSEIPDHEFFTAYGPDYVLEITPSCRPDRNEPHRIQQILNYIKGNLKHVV
To be noted: previously reported 4-amino analogues; cited from earlier work.

In another assay the target is T4, HDAC3 (Homo sapiens, UniProt O15379).
T4 construct: purchased Reaction Biology corporation (contract assay)
T4 sequence (O15379 whole entry): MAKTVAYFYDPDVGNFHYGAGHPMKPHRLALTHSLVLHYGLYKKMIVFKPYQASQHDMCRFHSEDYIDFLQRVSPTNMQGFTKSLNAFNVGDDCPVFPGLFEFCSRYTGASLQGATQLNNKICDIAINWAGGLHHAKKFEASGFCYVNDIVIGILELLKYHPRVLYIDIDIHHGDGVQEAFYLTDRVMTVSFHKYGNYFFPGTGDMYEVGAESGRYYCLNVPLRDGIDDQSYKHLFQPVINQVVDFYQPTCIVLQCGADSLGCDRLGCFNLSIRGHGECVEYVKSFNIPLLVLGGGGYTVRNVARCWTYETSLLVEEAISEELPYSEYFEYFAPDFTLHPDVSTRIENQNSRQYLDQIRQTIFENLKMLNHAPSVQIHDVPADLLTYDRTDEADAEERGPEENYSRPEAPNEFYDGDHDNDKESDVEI
T4 sequence (Q9Y618 395-489 partner limits assumed): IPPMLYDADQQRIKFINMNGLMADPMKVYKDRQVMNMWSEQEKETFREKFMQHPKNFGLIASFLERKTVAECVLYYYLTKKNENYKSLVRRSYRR
Conditions: previously reported 4-amino analogues; cited from earlier work.

In assay [2] the target is T2, HDAC1. More on the design: method as in PMID 30168823. Conditions: Figure 2; cited from earlier work.
In a further assay the target is T5, HDAC6 (Homo sapiens, UniProt Q9UBN7).
T5 construct: purchased Reaction Biology corporation (contract assay)
T5 sequence (Q9UBN7 1-1215): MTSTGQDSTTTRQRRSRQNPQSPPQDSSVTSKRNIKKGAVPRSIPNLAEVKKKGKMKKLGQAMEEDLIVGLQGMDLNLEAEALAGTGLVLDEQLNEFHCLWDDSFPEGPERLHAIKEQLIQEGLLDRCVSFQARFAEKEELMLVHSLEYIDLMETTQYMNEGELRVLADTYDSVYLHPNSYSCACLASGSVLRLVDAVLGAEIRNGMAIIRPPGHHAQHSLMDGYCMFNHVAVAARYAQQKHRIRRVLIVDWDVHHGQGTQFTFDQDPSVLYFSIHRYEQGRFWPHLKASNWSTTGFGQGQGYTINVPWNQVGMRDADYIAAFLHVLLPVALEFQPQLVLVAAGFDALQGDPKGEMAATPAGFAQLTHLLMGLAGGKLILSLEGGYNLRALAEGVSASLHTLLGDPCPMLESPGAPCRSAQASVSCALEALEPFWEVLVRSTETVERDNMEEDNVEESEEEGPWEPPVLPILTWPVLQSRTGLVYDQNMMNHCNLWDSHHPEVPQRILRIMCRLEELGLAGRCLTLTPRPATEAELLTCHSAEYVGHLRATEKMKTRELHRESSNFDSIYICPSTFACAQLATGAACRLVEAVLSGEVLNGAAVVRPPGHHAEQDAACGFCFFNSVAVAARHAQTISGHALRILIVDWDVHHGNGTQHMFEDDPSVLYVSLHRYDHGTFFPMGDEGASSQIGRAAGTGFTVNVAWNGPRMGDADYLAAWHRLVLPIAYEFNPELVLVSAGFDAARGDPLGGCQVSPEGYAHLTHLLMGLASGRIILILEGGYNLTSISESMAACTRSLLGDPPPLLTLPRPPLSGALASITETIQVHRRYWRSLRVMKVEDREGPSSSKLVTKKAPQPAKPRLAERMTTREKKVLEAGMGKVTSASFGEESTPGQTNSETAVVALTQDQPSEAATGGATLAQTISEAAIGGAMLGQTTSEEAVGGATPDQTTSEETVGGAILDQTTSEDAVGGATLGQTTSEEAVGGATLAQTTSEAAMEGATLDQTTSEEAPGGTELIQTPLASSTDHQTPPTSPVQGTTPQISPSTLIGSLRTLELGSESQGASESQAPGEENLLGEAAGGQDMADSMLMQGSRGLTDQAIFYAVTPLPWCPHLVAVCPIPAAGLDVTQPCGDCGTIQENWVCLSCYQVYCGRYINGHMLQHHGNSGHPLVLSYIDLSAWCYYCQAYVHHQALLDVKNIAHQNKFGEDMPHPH
More on the design: method as in PMID 30168823. To be noted: Figure 2; cited from earlier work.

Assay [3] deals with acetylated tubulin in A549 cells. Put plainly: Tubulin acetylation in A549 cells, immunostaining with high content imaging. It counts as cell-based, human. To be noted: 24 h; for Concentration from which tubulin acetylation was significantly increased: compared to untreated cells. On the procedure: (§1) To confirm the observed activities of the selected test compounds against HDAC6, the acetylation status of tubulin in the human lung cancer cell line A549 was investigated by immunostaining combined with automated high content image analysis (see supplementary material for full details). […] The apparent drop in histone acetylation by both compounds above 10 μM is indicative of a potential cytotoxicity at higher concentrations (data not shown).
(§2) Figure 5 Cell-based assessment of HDAC activity and selectivity. Dose and time-dependency of tubulin and histone acetylation by test compounds. A549 cells were treated with (A,B) different concentrations (0–50 µM) of CF011, KNH019 and tubastatin for 24 h or with (C,D) 1 µM over different time intervals before (A,C) tubulin acetylation or (B,D) histone acetylation were automatically quantified using high content imaging. Data represent the average of four independent experiments with four replicate wells/experiments. The statistical significances of effects compared to the untreated control were analysed using Brown–Forsythe and Welch one-way ANOVA analyses using Graph Pad Prism. The significance was set as * 0.05 > p ≥ 0.01, ** 0.01 > p ≥ 0.002. Error bars represent the Standard Error of Mean (SEM). (E) Representative fluorescence images show tubulin acetylation (yellow), histone acetylation (red) and nuclear counterstain (DAPI, blue) after 24 h of exposure to test compounds. Secondary antibodies were detected using excitation/emission filters for CY3 (excitation: 542/27 nm, emission: 597/45 nm), CY5 (excitation: 632/22 nm, emission: 684/25 nm) and DAPI (excitation: 390/18 nm, emission: 435/48 nm), respectively. […]
(§3) S2.2 Cell Culture, Treatment and Immunostaining:
(§4) A549 cells (ATCC® CCL-185™, In Vitro Technologies Pty. Ltd., Victoria, Australia) were cultured in low glucose Dulbecco’s Modified Eagle Media (DMEM, 1 g/L glucose, 0.584 g/L L-glutamine, 3.7 g/L sodium bicarbonate, 10 % fetal bovine serum) under standard conditions (> 90 % humidity, 37 °C temperature, 5 % CO 2). For experiments, 5,000 cells/ well were seeded in 100 µl serum free DMEM in 384 well plates (µCLEAR®, Greiner) and left to adhere for 24 hours before the treatment. Cells were treated with 100 µl of test compound -containing media for up to 24 hours before cells were fixed with 4 % paraformaldehyde (PFA) solution in PBS (10 minutes at room temperature (RT)) and permeabi lized with 50 µl of 0.5 % Triton X -100 in PBS. Subsequently, cells were blocked in PBST (5% fetal bovine serum, 5% bovine serum albumin, 5% goat serum, 0.1% Tween 20 in PBS) before stained with anti - acetylated tubulin (T7451, Sigma Aldrich; 1:1,000) and an ti-acetylated histone antibody (ab47915, Abcam; 1:1,000) overnight at 4 °C. Subsequently, cells were exposed to secondary antibodies (goat anti-mouse Alexa fluor 594 (Invitrogen; 1:10,000) and goat anti -rabbit Alexa fluor 647 (Invitrogen; 1:10,000) in PBST ) and DAPI solution (Invitrogen; 1:10,000 in PBST) before images were acquired.
(§5) Fluorescence images were acquired (10x magnification, 2 -D format) using the InCell 2200 high content imaging system (V7.3, GE Healthcare life sciences) wi th CY3 (excitation: 542/27 nm, emission: 597/45 nm), CY5 (excitation: 632/22 nm, emission: 684/25 nm) and DAPI (excitation: 390/18 nm, emission:
435/48 nm) filters. Two images/well at predefined positions were automatically acquired with 4 replicate wells for each treatment condition/ experiment. At least 3 independent experiments were conducted for each condition. Acquired images were automatically processed using InCarta software (v1.6, GE Healthcare life sciences). All images were manually checked for ar tefacts. Images with less than 30 cells were excluded from the analysis. Excel and GraphPad Prism was used for statistical analysis and graphical representation. Data was expressed as % Relative Fluorescence Units (RFU) […]

Assay [4] deals with acetylated histone in A549 cells. As to the kind of experiment: Histone acetylation in A549 cells, immunostaining with high content imaging. It counts as cell-based, human. Conditions: 24 h; for Concentration from which histone acetylation was significantly increased: compared to untreated cells. On the procedure: as §1, §2, §3, §4, §5
435/48 nm) filters. […] Data was expressed as % Relative Fluorescence Units (RFU) […]

Read-outs that look alike come from different tables or passages of the source.

A word on the IC50: it is the concentration needed to halve the response being measured. Take `CCCNc1ccc2c3c(cccc13)C(=O)N(CCCCCC(=O)NO)C2=O` [CF010]: the “Selectivity factor (SF) HDAC11 against HDAC6” value on HDAC11 is given as 16. Also, at HDAC1 [1], the “Selectivity factor (SF) = HDAC1 IC50/HDAC6 IC50” value is listed as 123. In addition, the “Selectivity factor (SF) HDAC8 against HDAC6” value at HDAC8 is reported as 317. Moreover, at HDAC3, the IC50 is 110 ± 4 nM and the “Selectivity factor (SF) HDAC3 against HDAC6” value is 23.
Take `COc1cc2c3c(cccc3c1)C(=O)N(Cc1ccc(C(=O)NO)cc1)C2=O` [Compound 3]: on HDAC1 [2], the half-inhibitory concentration (IC50) is 33 nM and the “Selectivity factor (SF) = HDAC1 IC50/HDAC6 IC50” value is given as 412. In addition, on HDAC6, the half-inhibitory concentration (IC50) is 0.08 nM.
For the molecule `O=C(CCCCCN1C(=O)c2cccc3c(NCc4ccccc4)ccc(c23)C1=O)NO` [CF011], the “Selectivity factor (SF) HDAC11 against HDAC6” value at HDAC11 is 43. Also, at HDAC1 [1], the “Selectivity factor (SF) = HDAC1 IC50/HDAC6 IC50” value was 566. Further, the “Increase of tubulin acetylation compared to untreated cells (up to)” value in assay [3] (0-50 µM, dose-dependent) is around 1.5 fold. Also, the “Tubulin acetylation in representative immunostaining images” value in assay [3] (10 µM) is “strongly induce”. In addition, the “Concentration from which tubulin acetylation was significantly increased” value in assay [3] is recorded as 10^−9 mM. For the same molecule, at HDAC8, the “Selectivity factor (SF) HDAC8 against HDAC6” value is listed as 703. The “Histone acetylation in representative immunostaining images” value in assay [4] (10 µM) is given as “strongly induce”. Further, the “Concentration from which histone acetylation was significantly increased” value in assay [4] was 10^−6 mM. At HDAC3, the IC50 was 360 ± 0.7 nM and the “Selectivity factor (SF) HDAC3 against HDAC6” value is given as 103.
Consider `CN1CCc2c(c3ccccc3n2Cc2ccc(C(=O)NO)cc2)C1` [tubastatin], for which, in assay [3], the “Concentration from which tubulin acetylation was significantly increased” value is given as 10^−3 mM. Also, the “Concentration from which histone acetylation was significantly increased” value in assay [4] is 10^−3 mM.

The values above are taken from paper PMC8232238 (Cells, 2021).
